The values below are quoted from earlier work in patent publication US20230364009A1, “Implantable Medical Device for the Delivery of an Antipsychotic” (Celanese EVA Performance Polymers LLC, priority 2022, published 2023).

The structures appear in SMILES notation.

The test system of series [1] is haloperidol-sensitive sigma site.
Series [2] addresses T1, serotonin 5HT1c receptors (Homo sapiens, UniProt P28335).
T1 sequence (P28335 33-458): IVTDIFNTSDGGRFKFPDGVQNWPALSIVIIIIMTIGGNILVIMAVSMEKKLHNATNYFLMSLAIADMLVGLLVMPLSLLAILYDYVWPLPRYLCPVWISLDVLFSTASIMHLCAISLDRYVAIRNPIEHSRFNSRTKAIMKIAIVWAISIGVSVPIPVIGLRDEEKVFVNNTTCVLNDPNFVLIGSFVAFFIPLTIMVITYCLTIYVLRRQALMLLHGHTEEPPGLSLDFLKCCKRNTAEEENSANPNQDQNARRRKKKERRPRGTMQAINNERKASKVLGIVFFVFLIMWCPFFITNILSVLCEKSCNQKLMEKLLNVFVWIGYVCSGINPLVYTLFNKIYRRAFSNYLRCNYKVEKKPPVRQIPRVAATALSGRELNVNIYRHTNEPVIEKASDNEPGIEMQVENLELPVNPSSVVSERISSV

The target of series [3] is serotonin 5HT1D receptors (Homo sapiens, UniProt P28221).
The target in a further series is dopamine D1 (Homo sapiens, UniProt P21728).
For the next series, the target named is β1 adrenergic receptors (Homo sapiens, UniProt P08588).
Series [4] deals with T2, serotonin 5HT1A receptors (Homo sapiens, UniProt P08908).
T2 sequence (P08908 1-422): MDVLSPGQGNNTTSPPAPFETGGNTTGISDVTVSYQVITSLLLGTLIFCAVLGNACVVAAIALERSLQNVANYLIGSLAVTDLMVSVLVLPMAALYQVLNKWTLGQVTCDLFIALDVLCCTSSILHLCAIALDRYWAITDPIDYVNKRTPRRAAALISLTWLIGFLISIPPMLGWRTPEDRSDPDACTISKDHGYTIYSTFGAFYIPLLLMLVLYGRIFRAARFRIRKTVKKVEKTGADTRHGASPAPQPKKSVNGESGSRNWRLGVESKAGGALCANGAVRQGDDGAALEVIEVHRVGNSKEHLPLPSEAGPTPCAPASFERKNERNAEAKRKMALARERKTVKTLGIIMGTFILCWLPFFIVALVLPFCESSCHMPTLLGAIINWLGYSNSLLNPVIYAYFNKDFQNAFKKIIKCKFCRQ

For series [5], the target named is dopamine Type 2 (D2) receptors (Homo sapiens, UniProt P14416).
The target in another series is β2 adrenergic receptors (Homo sapiens, UniProt P07550).
Chain of β2 adrenergic receptors (P07550 whole entry): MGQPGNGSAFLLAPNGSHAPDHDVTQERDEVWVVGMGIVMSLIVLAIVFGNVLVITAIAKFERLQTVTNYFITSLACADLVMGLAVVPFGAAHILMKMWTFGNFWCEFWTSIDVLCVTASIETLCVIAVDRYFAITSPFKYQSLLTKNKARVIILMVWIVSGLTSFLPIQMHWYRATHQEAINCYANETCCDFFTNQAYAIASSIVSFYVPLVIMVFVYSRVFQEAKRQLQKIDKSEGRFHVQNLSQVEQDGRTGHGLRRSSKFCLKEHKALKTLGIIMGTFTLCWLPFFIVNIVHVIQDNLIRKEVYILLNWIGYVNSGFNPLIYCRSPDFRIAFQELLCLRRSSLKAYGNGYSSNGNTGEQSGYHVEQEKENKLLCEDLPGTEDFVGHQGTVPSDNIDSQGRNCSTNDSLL

Chain of serotonin 5HT1D receptors (P28221 whole entry): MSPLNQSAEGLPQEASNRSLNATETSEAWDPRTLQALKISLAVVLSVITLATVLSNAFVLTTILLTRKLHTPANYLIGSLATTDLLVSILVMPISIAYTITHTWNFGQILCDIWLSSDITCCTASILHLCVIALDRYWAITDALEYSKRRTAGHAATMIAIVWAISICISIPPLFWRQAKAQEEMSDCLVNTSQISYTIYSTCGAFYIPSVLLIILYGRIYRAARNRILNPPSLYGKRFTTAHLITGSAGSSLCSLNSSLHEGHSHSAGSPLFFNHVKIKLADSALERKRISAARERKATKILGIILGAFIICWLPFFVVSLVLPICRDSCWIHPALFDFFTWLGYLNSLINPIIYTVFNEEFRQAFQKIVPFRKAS
Chain of dopamine D1 (P21728 whole entry): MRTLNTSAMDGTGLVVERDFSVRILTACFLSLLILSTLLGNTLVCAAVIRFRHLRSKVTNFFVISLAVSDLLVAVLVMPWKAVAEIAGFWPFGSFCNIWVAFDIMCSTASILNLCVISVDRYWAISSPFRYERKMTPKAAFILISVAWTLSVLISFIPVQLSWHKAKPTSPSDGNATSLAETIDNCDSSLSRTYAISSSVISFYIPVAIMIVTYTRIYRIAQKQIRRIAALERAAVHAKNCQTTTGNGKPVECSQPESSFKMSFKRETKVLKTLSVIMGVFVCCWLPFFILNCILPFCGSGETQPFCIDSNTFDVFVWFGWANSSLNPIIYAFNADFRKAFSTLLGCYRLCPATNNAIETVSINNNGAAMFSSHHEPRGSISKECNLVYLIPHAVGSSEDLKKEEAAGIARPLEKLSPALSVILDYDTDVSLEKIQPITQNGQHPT
Chain of dopamine Type 2 (D2) receptors (P14416 whole entry): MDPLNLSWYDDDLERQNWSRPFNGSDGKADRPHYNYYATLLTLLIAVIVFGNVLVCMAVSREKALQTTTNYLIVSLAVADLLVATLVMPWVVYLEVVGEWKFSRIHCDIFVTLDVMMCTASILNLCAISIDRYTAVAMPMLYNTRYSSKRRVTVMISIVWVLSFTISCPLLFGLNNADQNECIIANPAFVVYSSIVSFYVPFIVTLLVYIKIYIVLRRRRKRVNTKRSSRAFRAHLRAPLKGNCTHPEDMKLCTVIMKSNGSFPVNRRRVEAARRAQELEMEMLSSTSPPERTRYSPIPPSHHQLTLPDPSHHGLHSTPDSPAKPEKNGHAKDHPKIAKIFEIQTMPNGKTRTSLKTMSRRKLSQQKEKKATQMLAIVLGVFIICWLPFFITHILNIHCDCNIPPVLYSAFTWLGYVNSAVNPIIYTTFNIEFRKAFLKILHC
Chain of β1 adrenergic receptors (P08588 whole entry): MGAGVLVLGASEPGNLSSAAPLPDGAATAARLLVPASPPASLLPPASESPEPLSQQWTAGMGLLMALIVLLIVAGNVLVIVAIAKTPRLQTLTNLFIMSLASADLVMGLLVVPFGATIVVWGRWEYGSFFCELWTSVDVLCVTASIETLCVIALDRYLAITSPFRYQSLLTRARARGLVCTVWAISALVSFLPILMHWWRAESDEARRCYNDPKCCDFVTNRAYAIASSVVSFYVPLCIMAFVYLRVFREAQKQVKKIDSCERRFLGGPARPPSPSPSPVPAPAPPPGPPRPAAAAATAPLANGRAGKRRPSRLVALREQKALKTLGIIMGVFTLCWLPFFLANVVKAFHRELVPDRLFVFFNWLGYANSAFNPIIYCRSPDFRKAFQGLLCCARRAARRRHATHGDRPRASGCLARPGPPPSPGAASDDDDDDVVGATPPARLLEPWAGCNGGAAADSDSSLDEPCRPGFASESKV

With `Cc1nc2n(c(=O)c1CCN1CCC(c3noc4cc(F)ccc34)CC1)CCCC2` [Risperidone, risperidone], the affinity result is “weak affinity” in series [1]; “low to moderate affinity” in [2]; “low to moderate affinity” in [3]; “weak affinity” at dopamine D1; “no affinity” at β1 adrenergic receptors; “high affinity” in the series with α2 adrenergic receptors. Besides, the affinity result was “low to moderate affinity” in [4], “high affinity” in [5], “no affinity” on β2 adrenergic receptors and “high affinity” in the series with α1 adrenergic receptors.
